# Experimental data reported in paper PMC3841161, “De Novo Design and Synthesis of Ultra-Short Peptidomimetic Antibiotics Having Dual Antimicrobial and Anti-Inflammatory Activities” (PLoS ONE, 2013).
# Residues, ends and D or L forms follow the SMILES beside them. No end group written: not given here.
# Key:
# [1] = test system: four bacterial strains (E. coli, P. aeruginosa, S. epidermidis, S. aureus); assay type: cell-based; settings: 20 h
# Method: (§1) The prokaryotic selectivity of our designed HDAMPs is defined by the therapeutic index (TI) as a measure of the relative safety of the drug. It is a measure of a peptide's capability to differentiate any pathogen from a host cell. The TI value of each peptide was calculated as the ratio of the HC10 (the peptide concentration that produces 10% hemolysis toward hRBCs) to the geometric mean [GM; the geometric mean of the minimal inhibitory concentration (MIC) against four selected bacterial strains]. Larger values of TI correspond to greater prokaryotic selectivity.
# (§2) The antimicrobial activity of the peptides against two Gram-positive bacterial strains and two Gram-negative bacterial strains was examined using the broth microdilution method in sterile 96-well plates. Aliquots (100 µL) of a bacterial suspension at 2×10^6 colony-forming units (CFU)/mL in 1% peptone were added to 100 µL of the peptide solution (serial two-fold dilutions in 1% peptone). After incubation for 18−20 h at 37°C, bacterial growth inhibition was determined by measuring the absorbance at 600 nm with a Microplate Autoreader EL 800 (Bio-Tek Instruments, VT). The minimal inhibitory concentration (MIC) was defined as the minimum peptide concentration inhibited bacteria growth. Two types of Gram-positive bacteria (S. epidermidis [KCTC 1917] and S. aureus [KCTC 1621]) and two types of Gram-negative bacteria (E. coli [KCTC 1682] and P. aeruginosa [KCTC 1637]) were procured from the Korean Collection for Type Cultures (KCTC) at the Korea Research Institute of Bioscience and Biotechnology (KRIBB). MRSA samples (CCARM 3089, CCARM 3090, and CCARM 3095) were obtained from the Culture Collection of Antibiotic-Resistant Microbes (CCARM) at Seoul Women's University (Seoul, Korea).
# [2] = test system: P. aeruginosa [KCTC 1637]; assay type: cell-based, Pseudomonas aeruginosa; settings: KCTC 1637, 20 h
# Method: as §2
# S. aureus [KCTC 1621] = assay type: cell-based, Staphylococcus aureus; settings: KCTC 1621, 20 h
# Method: as §2
# trypsin [3] = experiment: Protease stability by RP HPLC; assay type: in vitro ADME; settings: 5 µL of 10 mg/mL peptide in 25 µL of 0.2-µg/mL trypsin in PBS, 37°C, 0, 0.5, 1.0, 2.0 and 4 h; C18 RP-HPLC, 224 nm
# Method: Five microliters of an aqueous peptide stock solution (10 mg/mL) were added to 25 µL of the 0.2-µg/mL trypsin solution in PBS, respectively, and incubated at 37°C for 0, 0.5, 1.0, 2.0, and 4 h. The 5-µL solution was taken out at each time interval and immediately frozen with liquid nitrogen. Individually thawed samples were loaded onto a C18 reverse-phase column for HPLC analysis (5 µm; 4.6 mm ×250 mm; Vydac). Peptides were eluted by a 60-min linear gradient of 0–90% (v/v) acetonitrile in water containing 0.05% (v/v) trifluoroacetic acid with a flow rate of 1 mL/min and detection of 224 nm.
# [4] = test system: S. epidermidis [KCTC 1917]; assay type: cell-based, Staphylococcus epidermidis; settings: KCTC 1917, 20 h
# Method: as §2
# E. coli [KCTC 1682] = assay type: cell-based, Escherichia coli; settings: KCTC 1682, 20 h
# Method: as §2
# MRSA 2 [CCARM 3090] = assay type: cell-based, methicillin-resistant Staphylococcus aureus; settings: CCARM 3090, 20 h
# Method: as §2
# MRSA 3 [CCARM 3095] = assay type: cell-based, methicillin-resistant Staphylococcus aureus; settings: CCARM 3095, 20 h
# Method: as §2
# MRSA 1 [CCARM 3089] = assay type: cell-based, methicillin-resistant Staphylococcus aureus; settings: CCARM 3089, 20 h
# Method: as §2
# [5] = test system: hRBCs versus four bacterial strains; experiment: Prokaryotic selectivity (therapeutic index, HC10/GM); settings: ratio of HC10 to GM; 512 µg/mL used for HC10 >256 and 128 µg/mL for MIC >64
# Method: as §1
# trypsin [6] = experiment: Protease stability by radial diffusion assay; assay type: in vitro ADME; settings: 5 µL of 10 mg/mL peptide in 25 µL of 0.2-µg/mL trypsin in PBS, 37°C, text: 24 h, method: 6 h
# Method: E. coli (KCTC 1682) was grown overnight for 18 h at 37°C in 10 mL of LB broth, and then 10 µl of this culture was inoculated into 10 mL of fresh LB and incubated for an additional 3 h at 37°C to obtain mid-logarithmic-phase organisms. For the radial diffusion assay method, a bacteria suspension (2×10^6 CFU/mL in LB) was mixed with 0.7% agarose. The mixture was poured into a 10-cm petri dish after rapidly dispersing. Five microliters of an aqueous peptide stock solution (10 mg/mL) were added to 25 µL of the 0.2-µg/mL trypsin solution in PBS, respectively, and incubated at 37°C for 6 h. The reaction was stopped by freezing with liquid nitrogen, and then 10-µL aliquots were placed in each circle paper (≈6 mm in diameter) put on the agarose plates and then incubated at 37°C overnight. The diameters of the bacterial clearance zones surrounding the circle paper were measured for the quantitation of inhibitory activities.
Compound,"GM, geometric mean of the MIC values against four bacterial strains [1]",Minimal Inhibitory Concentration (MIC) P. aeruginosa [KCTC 1637] [2],Minimal Inhibitory Concentration (MIC) S. aureus [KCTC 1621] (S. aureus [KCTC 1621]),"resistance to proteolysis by trypsin, remaining peptide by RP-HPLC (in words) (trypsin [3])",Minimal Inhibitory Concentration (MIC) S. epidermidis [KCTC 1917] [4],Minimal Inhibitory Concentration (MIC) E. coli [KCTC 1682] (E. coli [KCTC 1682]),Minimal Inhibitory Concentration (MIC) MRSA 2 [CCARM 3090] (MRSA 2 [CCARM 3090]),Minimal Inhibitory Concentration (MIC) MRSA 3 [CCARM 3095] (MRSA 3 [CCARM 3095]),Minimal Inhibitory Concentration (MIC) MRSA 1 [CCARM 3089] (MRSA 1 [CCARM 3089]),"TI (HC10/GM), therapeutic index [5]",antimicrobial activity against E. coli (KCTC 1682) in the presence of trypsin (in words) (trypsin [6])
"N=C(N)NCCC[C@H](NC(=O)[C@H](Cc1c[n+](CCCCCCCc2ccccc2)cn1CCCCCCCc1ccccc1)NC(=O)[C@@H](N)CCCNC(=N)N)C(N)=O [HDAMP-1, Arg-His((CH2)7C6H5)2-Arg-NH2]",3.5 (4.3) µg/mL,4 (4.9) µg/mL,4 (4.9) µg/mL,fully resistant,2 (2.5) µg/mL,4 (4.9) µg/mL,2 (2.5) µg/mL,2 (2.5) µg/mL,2 (2.5) µg/mL,10.3,–
N=C(N)NCCC[C@H](NC(=O)[C@H](Cc1c[n+](CCCc2ccccc2)cn1CCCc1ccccc1)NC(=O)[C@@H](N)CCCNC(=N)N)C(N)=O [HDAMP-2],9 (12.8) µg/mL,16 (22.7) µg/mL,8 (11.4) µg/mL,–,8 (11.4) µg/mL,4 (5.7) µg/mL,32 (45.5) µg/mL,16 (22.7) µg/mL,16 (22.7) µg/mL,56.9,–
N=C(N)NCCC[C@H](NC(=O)[C@@H](N)Cc1c[n+](CCCCCCCc2ccccc2)cn1CCCCCCCc1ccccc1)C(N)=O [HDAMP-3],3 (4.6). µg/mL,4 (6.1) µg/mL,2 (3) µg/mL,fully resistant,2 (3) µg/mL,4 (6.1) µg/mL,2 (3) µg/mL,2 (3) µg/mL,2 (3) µg/mL,6.3,–
N=C(N)NCCC[C@H](NC(=O)[C@H](Cc1cncn1CCCCCCCc1ccccc1)NC(=O)[C@@H](N)CCCNC(=N)N)C(N)=O [HDAMP-4],17.5 (27.3) µg/mL,32 (49.9) µg/mL,4 (6.2) µg/mL,–,2 (3.1) µg/mL,32 (49.9) µg/mL,16 (24.9) µg/mL,16 (24.9) µg/mL,16 (24.9) µg/mL,29.3,–
N=C(N)NCCC[C@@H](N)C(=O)N[C@@H](Cc1c[n+](CCCCCCCc2ccccc2)cn1CCCCCCCc1ccccc1)C(=O)N[C@H](CCCNC(=N)N)C(N)=O [HDAMP-5],12.0 (14.7) µg/mL,16 (19.6) µg/mL,8 (9.8) µg/mL,fully resistant,8 (9.8) µg/mL,16 (19.6) µg/mL,8 (9.8) µg/mL,8 (9.8) µg/mL,8 (9.8) µg/mL,10.8,–
N=C(N)NCCC[C@@H](NC(=O)[C@@H](N)Cc1c[n+](CCCCCCCc2ccccc2)cn1CCCCCCCc1ccccc1)C(N)=O [HDAMP-6],3.5 (5.3) µg/mL,4 (6.1) µg/mL,2 (3) µg/mL,fully resistant,4 (6.1) µg/mL,4 (6.1) µg/mL,2 (3) µg/mL,2 (3) µg/mL,2 (3) µg/mL,8,–
CC[C@H](C)[C@H](NC(=O)[C@H](CCCCN)NC(=O)[C@H](CCC(=O)O)NC(=O)[C@H](CCCCN)NC(=O)[C@H](CO)NC(=O)[C@H](CCCCN)NC(=O)[C@H](CCCNC(=N)N)NC(=O)[C@H](Cc1ccccc1)NC(=O)[C@H](Cc1ccccc1)NC(=O)[C@H](CC(=O)O)NC(=O)CNC(=O)[C@H](CC(C)C)NC(=O)[C@@H](N)CC(C)C)C(=O)NCC(=O)N[C@@H](CCCCN)C(=O)N[C@@H](CCC(=O)O)C(=O)N[C@@H](Cc1ccccc1)C(=O)N[C@@H](CCCCN)C(=O)N[C@@H](CCCNC(=N)N)C(=O)N[C@H](C(=O)N[C@H](C(=O)N[C@@H](CCC(N)=O)C(=O)N[C@@H](CCCNC(=N)N)C(=O)N[C@H](C(=O)N[C@@H](CCCCN)C(=O)N[C@@H](CC(=O)O)C(=O)N[C@@H](Cc1ccccc1)C(=O)N[C@@H](CC(C)C)C(=O)N[C@@H](CCCNC(=N)N)C(=O)N[C@@H](CC(N)=O)C(=O)N[C@@H](CC(C)C)C(=O)N[C@H](C(=O)N1CCC[C@H]1C(=O)N[C@@H](CCCNC(=N)N)C(=O)N[C@H](C(=O)N[C@@H](CCC(=O)O)C(=O)N[C@@H](CO)C(=O)O)[C@@H](C)O)C(C)C)[C@@H](C)CC)C(C)C)[C@@H](C)CC [LL-37],–,–,–,–,–,–,–,–,–,–,completely lost their antimicrobial activities
"N=C(N)NCCC[C@H](NC(=O)[C@H](Cc1c[nH]c2ccccc12)NC(=O)[C@@H](N)CCCNC(=N)N)C(N)=O [RWR-NH2, reference compound] (H-Arg-Trp-Arg-NH2)",>64 (>124) µg/mL,>64 (>124) µg/mL,>64 (>124) µg/mL,–,>64 (>124) µg/mL,>64 (>124) µg/mL,–,–,–,–,–
"WRWRWR-NH2 [(WR)3-NH2, reference compound]",9 (8.6) µg/mL,16 (15.3) µg/mL,8 (7.7) µg/mL,–,8 (7.7) µg/mL,4 (3.8) µg/mL,–,–,–,56.9,–
